According to patent publication US10647747B2, “Cyclosporin derivatives and uses thereof” (S&T Global Inc., priority 2010, dated 2020):
Where two headings read alike, the source gives them in different places. Blank lines part the entries; values can stand above or below the molecule they belong to. *1 amine or outer side, *2 acyl side, *3 side chain or, on linkers, in order; H or OH if unused. Where a SMILES comes first, the peptide text is derived from it. [ ]: non-standard residue; d: D form. ξ: configuration not given here. MeBmt = C/C=C/C[C@@H](C)[C@@H](O)[C@H](NC)C(=O)O; X2 = CCN(CC)CCCS[C@H](C(=O)[*:2])N(C)[*:1]; X3 = CC=CCC(C)C(O)C(C(=O)[*:2])N(C)[*:1]; X13 = CCN(CC)CCCSC(C(=O)[*:2])N(C)[*:1]; NMeIle(3ξ) = CCC(C)[C@H](NC)C(=O)O; NMeL = CN[CH](CC(C)C)C(=O)O; NMeV = CN[CH](C(=O)O)C(C)C; Abu = CC[CH](N)C(=O)O

Assays:
[1] = Stability testing: epimerization of cyclosporin derivatives in methanol, monitored by HPLC; format: physicochemical; details: for Epimerization % after 168 hours: Table 11, MeOH at 50° C.-58° C.
[2] = tested on: HCV replicon in cell line ET (luc-ubi-neo/ET), Huh7 human hepatoma; assay: HCV subgenomic replicon assay, luciferase end point; format: cell-based; details: read-out: Antiviral activity EC50
[3] = Table 10, MeOH at 50° C., 29 hours
[4] = Table 10, MeOH at 50° C., 77 hours
[5] = Table 10, MeOH at 50° C., 125 hours
[6] = HCV subgenomic replicon, cell line ET (luc-ubi-neo/ET) Huh7, luciferase end point

SMILES: C/C=C/C[C@@H](C)[C@@H](O)[C@H]1C(=O)N[C@@H](CC)C(=O)N(C)[C@H](SCCCN(CC)CC)C(=O)N(C)[C@@H](C(C)CC)C(=O)N[C@@H](C(C)C)C(=O)N(C)[C@@H](CC(C)C)C(=O)N[C@@H](C)C(=O)N[C@H](C)C(=O)N(C)[C@@H](CC(C)C)C(=O)N(C)[C@@H](CC(C)C)C(=O)N(C)[C@@H](C(C)C)C(=O)N1C (some centres unmarked) (cyclo(A[dA][NMeL][NMeL][NMeV][MeBmt][Abu][X2][NMeIle(3ξ)]V[NMeL]))
Epimerization % [1, 3]: 0% | Epimerization % [1, 4]: 0% | Epimerization % [1, 5]: 0%

SMILES: C/C=C/C[C@@H](C)[C@@H](O)[C@H]1C(=O)N[C@@H](CC)C(=O)N(C)[C@H](COCCN(C)C)C(=O)N(C)[C@@H](CC(C)C)C(=O)N[C@@H](C(C)C)C(=O)N(C)[C@@H](CC(C)C)C(=O)N[C@@H](C)C(=O)N[C@H](C)C(=O)N(C)[C@@H](CC(C)C)C(=O)N(C)[C@@H](CC(C)C)C(=O)N(C)[C@@H](C(C)C)C(=O)N1C
Epimerization % after 168 hours [1]: 0%

SMILES: C/C=C/C[C@@H](C)[C@@H](O)[C@H]1C(=O)N[C@@H](CC)C(=O)N(C)[C@H](COCCN(CC)CC)C(=O)N(C)[C@@H](CC(C)(C)O)C(=O)N[C@@H](C(C)C)C(=O)N(C)[C@@H](CC(C)C)C(=O)N[C@@H](C)C(=O)N[C@H](C)C(=O)N(C)[C@@H](CC(C)C)C(=O)N(C)[C@@H](CC(C)C)C(=O)N(C)[C@@H](C(C)C)C(=O)N1C
Epimerization % after 168 hours [1]: 0%

SMILES: C/C=C/C[C@@H](C)[C@@H](O)[C@H]1C(=O)N[C@@H](CC)C(=O)N(C)[C@H](CSCCCN(C)C)C(=O)N(C)[C@@H](CC(C)(C)O)C(=O)N[C@@H](C(C)C)C(=O)N(C)[C@@H](CC(C)C)C(=O)N[C@@H](C)C(=O)N[C@H](C)C(=O)N(C)[C@@H](CC(C)C)C(=O)N(C)[C@@H](CC(C)C)C(=O)N(C)[C@@H](C(C)C)C(=O)N1C
Epimerization % after 168 hours [1]: 0%

SMILES: C/C=C/C[C@@H](C)[C@@H](O)[C@H]1C(=O)N[C@@H](CC)C(=O)N(C)[C@H](SCCCN(CC)CC)C(=O)N(C)[C@@H](C(C)C)C(=O)N[C@@H](C(C)C)C(=O)N(C)[C@@H](CC(C)C)C(=O)N[C@@H](C)C(=O)N[C@H](C)C(=O)N(C)[C@@H](CC(C)C)C(=O)N(C)[C@@H](CC(C)C)C(=O)N(C)[C@@H](C(C)C)C(=O)N1C (cyclo(A[dA][NMeL][NMeL][NMeV][MeBmt][Abu][X2][NMeV]V[NMeL]))
Epimerization % [1, 3]: 0% | Epimerization % [1, 4]: 0% | Epimerization % [1, 5]: 0%

SMILES: C/C=C/C[C@@H](C)[C@@H](O)[C@H]1C(=O)N[C@@H](CC)C(=O)N(C)[C@H](COCCCN(C)C)C(=O)N(C)[C@@H](CC(C)(C)O)C(=O)N[C@@H](C(C)C)C(=O)N(C)[C@@H](CC(C)C)C(=O)N[C@@H](C)C(=O)N[C@H](C)C(=O)N(C)[C@@H](CC(C)C)C(=O)N(C)[C@@H](CC(C)C)C(=O)N(C)[C@@H](C(C)C)C(=O)N1C
EC50 [2, 6]: 0.26 µM

SMILES: C/C=C/C[C@@H](C)[C@@H](O)[C@H]1C(=O)N[C@@H](CC)C(=O)N(C)[C@H](CSCCNCC(C)(C)C)C(=O)N(C)[C@@H](CC(C)(C)O)C(=O)N[C@@H](C(C)C)C(=O)N(C)[C@@H](CC(C)C)C(=O)N[C@@H](C)C(=O)N[C@H](C)C(=O)N(C)[C@@H](CC(C)C)C(=O)N(C)[C@@H](CC(C)C)C(=O)N(C)[C@@H](C(C)C)C(=O)N1C
EC50 ([2]; Hepatitis C virus, Huh-7, HCV subgenomic replicon, cell line ET (luc-ubi-neo/ET) Huh7, luciferase end point): 0.06 µM | EC50 ([2]; Hepatitis C virus, Huh-7, Table 16, HCV replicon luciferase): 0.05 µM

SMILES: CC=CCC(C)C(O)C1C(=O)NC(CC)C(=O)N(C)C(SCCNCC(C)(C)C)C(=O)N(C)C(CC(C)C)C(=O)NC(C(C)C)C(=O)N(C)C(CC(C)C)C(=O)NC(C)C(=O)NC(C)C(=O)N(C)C(CC(C)C)C(=O)N(C)C(CC(C)C)C(=O)N(C)C(C(C)C)C(=O)N1C [(S)-2-(N-neo-Pentylamino)ethylthio-Sar]-3-cyclosporin]
EC50 ([2]; Table 12, HCV replicon luciferase): 0.23 µM

SMILES: CC=CCC(C)C(O)C1C(=O)NC(CC)C(=O)N(C)C(CSCCN2CCCC2)C(=O)N(C)C(CC(C)(C)O)C(=O)NC(C(C)C)C(=O)N(C)C(CC(C)C)C(=O)NC(C)C(=O)NC(C)C(=O)N(C)C(CC(C)C)C(=O)N(C)C(CC(C)C)C(=O)N(C)C(C(C)C)C(=O)N1C (centres unmarked)
EC50 [2, 6]: 0.11 µM

SMILES: CC=CCC(C)C(O)C1C(=O)NC(CC)C(=O)N(C)C(CSCCN(C)C)C(=O)N(C)C(CC(C)(C)OC)C(=O)NC(C(C)C)C(=O)N(C)C(CC(C)C)C(=O)NC(C)C(=O)NC(C)C(=O)N(C)C(CC(C)C)C(=O)N(C)C(CC(C)C)C(=O)N(C)C(C(C)C)C(=O)N1C (centres unmarked)
EC50 [2, 6]: 0.1 µM

SMILES: CC=CCC(C)C(O)C1C(=O)NC(CC)C(=O)N(C)C(SCCCN(CC)CC)C(=O)N(C)C(CC(C)(C)O)C(=O)NC(C(C)C)C(=O)N(C)C(CC(C)C)C(=O)NC(C)C(=O)NC(C)C(=O)N(C)C(CC(C)C)C(=O)N(C)C(CC(C)C)C(=O)N(C)C(C(C)C)C(=O)N1C [(S)-3-(N,N-Diethylamino)propylthio-Sar]-3-[(γ-hydroxy)-N-MeLeu]-4-cyclosporin]
EC50 ([2]; Table 13, HCV replicon luciferase): 0.07 µM

SMILES: CC=CCC(C)C(O)C1C(=O)NC(CC)C(=O)N(C)C(CSCCCN2CCCCC2)C(=O)N(C)C(CC(C)(C)O)C(=O)NC(C(C)C)C(=O)N(C)C(CC(C)C)C(=O)NC(C)C(=O)NC(C)C(=O)N(C)C(CC(C)C)C(=O)N(C)C(CC(C)C)C(=O)N(C)C(C(C)C)C(=O)N1C (centres unmarked)
EC50 [2, 6]: 0.05 µM

SMILES: CC=CCC(C)C(O)C1C(=O)NC(CC)C(=O)N(C)C(CSCCN2CCN(C)CC2)C(=O)N(C)C(CC(C)(C)O)C(=O)NC(C(C)C)C(=O)N(C)C(CC(C)C)C(=O)NC(C)C(=O)NC(C)C(=O)N(C)C(CC(C)C)C(=O)N(C)C(CC(C)C)C(=O)N(C)C(C(C)C)C(=O)N1C (centres unmarked)
EC50 [2, 6]: 0.09 µM

SMILES: CC=CCC(C)C(O)C1C(=O)NC(CC)C(=O)N(C)C(SCCCN(CC)CC)C(=O)N(C)C(C(C)C)C(=O)NC(C(C)C)C(=O)N(C)C(CC(C)C)C(=O)NC(C)C(=O)NC(C)C(=O)N(C)C(CC(C)C)C(=O)N(C)C(CC(C)C)C(=O)N(C)C(C(C)C)C(=O)N1C [[(S)-3-(N,N-Diethylamino)propylthio-Sar]-3-[N-MeVal]-4-cyclosporin] (cyclo([X3][Abu][X13][NMeV]V[NMeL]AA[NMeL][NMeL][NMeV]); configuration not given here)
EC50 [2, 6]: 0.07 µM

Now from value to molecule:

Epimerization % after 168 hours [1]: 0%
SMILES: C/C=C/C[C@@H](C)[C@@H](O)[C@H]1C(=O)N[C@@H](CC)C(=O)N(C)[C@H](CSCCCN(CC)CC)C(=O)N(C)[C@@H](CC(C)(C)O)C(=O)N[C@@H](C(C)C)C(=O)N(C)[C@@H](CC(C)C)C(=O)N[C@@H](C)C(=O)N[C@H](C)C(=O)N(C)[C@@H](CC(C)C)C(=O)N(C)[C@@H](CC(C)C)C(=O)N(C)[C@@H](C(C)C)C(=O)N1C

Epimerization % ([1]; Table 7, MeOH at 65° C., 2 hours): ~12% | Epimerization % ([1]; Table 7, MeOH at 65° C., 4 hours): ~19% | Epimerization % ([1]; Table 7, MeOH at 65° C., 6 hours): ~23%
SMILES: C/C=C/C[C@@H](C)[C@@H](O)[C@H]1C(=O)N[C@@H](CC)C(=O)N(C)[C@H](SCCN(C)C)C(=O)N(C)[C@@H](CC(C)C)C(=O)N[C@@H](C(C)C)C(=O)N(C)[C@@H](CC(C)C)C(=O)N[C@@H](C)C(=O)N[C@H](C)C(=O)N(C)[C@@H](CC(C)C)C(=O)N(C)[C@@H](CC(C)C)C(=O)N(C)[C@@H](C(C)C)C(=O)N1C [drawing 1930]

Epimerization % after 168 hours [1]: 0%
SMILES: C/C=C/C[C@@H](C)[C@@H](O)[C@H]1C(=O)N[C@@H](CC)C(=O)N(C)[C@H](CSCCCN2CCCCC2)C(=O)N(C)[C@@H](CC(C)(C)O)C(=O)N[C@@H](C(C)C)C(=O)N(C)[C@@H](CC(C)C)C(=O)N[C@@H](C)C(=O)N[C@H](C)C(=O)N(C)[C@@H](CC(C)C)C(=O)N(C)[C@@H](CC(C)C)C(=O)N(C)[C@@H](C(C)C)C(=O)N1C

Epimerization % after 168 hours [1]: 0%
SMILES: C/C=C/C[C@@H](C)[C@@H](O)[C@H]1C(=O)N[C@@H](CC)C(=O)N(C)[C@H](CSCCN(CC)CC)C(=O)N(C)[C@@H](CC(C)C)C(=O)N[C@@H](C(C)C)C(=O)N(C)[C@@H](CC(C)C)C(=O)N[C@@H](C)C(=O)N[C@H](C)C(=O)N(C)[C@@H](CC(C)C)C(=O)N(C)[C@@H](CC(C)C)C(=O)N(C)[C@@H](C(C)C)C(=O)N1C (single isomer, unassigned)

Epimerization % [1, 3]: 0% | Epimerization % [1, 4]: 0% | Epimerization % [1, 5]: 0%
SMILES: C/C=C/C[C@@H](C)[C@@H](O)[C@H]1C(=O)N[C@@H](CC)C(=O)N(C)[C@H](SCCCN2CCOCC2)C(=O)N(C)[C@@H](CC(C)(C)O)C(=O)N[C@@H](C(C)C)C(=O)N(C)[C@@H](CC(C)C)C(=O)N[C@@H](C)C(=O)N[C@H](C)C(=O)N(C)[C@@H](CC(C)C)C(=O)N(C)[C@@H](CC(C)C)C(=O)N(C)[C@@H](C(C)C)C(=O)N1C [drawing 1936]

Epimerization % after 168 hours [1]: 0%
SMILES: C/C=C/C[C@@H](C)[C@@H](O)[C@H]1C(=O)N[C@@H](CC)C(=O)N(C)[C@H](CSCCN(C)C)C(=O)N(C)[C@@H](CC(C)(C)O)C(=O)N[C@@H](C(C)C)C(=O)N(C)[C@@H](CC(C)C)C(=O)N[C@@H](C)C(=O)N[C@H](C)C(=O)N(C)[C@@H](CC(C)C)C(=O)N(C)[C@@H](CC(C)C)C(=O)N(C)[C@@H](C(C)C)C(=O)N1C

Epimerization % [1, 3]: 0% | Epimerization % [1, 4]: 0% | Epimerization % [1, 5]: 0%
SMILES: C/C=C/C[C@@H](C)[C@@H](O)[C@H]1C(=O)N[C@@H](CC)C(=O)N(C)[C@H](SCCCN(CC)CC)C(=O)N(C)[C@@H](CC(C)(C)OC)C(=O)N[C@@H](C(C)C)C(=O)N(C)[C@@H](CC(C)C)C(=O)N[C@@H](C)C(=O)N[C@H](C)C(=O)N(C)[C@@H](CC(C)C)C(=O)N(C)[C@@H](CC(C)C)C(=O)N(C)[C@@H](C(C)C)C(=O)N1C
